{
  "source": "paper PMC6749524",
  "about": "“Identification of New Antifungal Agents Targeting Chitin Synthesis by a Chemical-Genetic Method” (Molecules, 2019)",
  "key": {"C. albicans": {"test_system": "C. albicans", "test": "MIC of CFW in the presence of compounds, checkerboard assay", "format": "cell-based, Candida albicans", "procedure": "(§1) Fresh cell cultures of WT S. cerevisiae and C. albicans ATCC10231 (OD600 = 0.8) were diluted to 10^4 CFU/mL in YPD medium. The in vitro synergistic and antagonistic effects of compounds were determined using checkerboard assay. MIC endpoints were defined as the lowest concentration of drugs, causing 80% decrease in viability compared to the drug-free control (MIC80). The calculation and interpretation of the fractional inhibitory concentration index (FICI) were carried out by referring to the document standards. FICI = (MIC of drug A in combination) / (MIC of drug A alone) + (MIC of drug B in combination) / (MIC of drug B alone). FIC ≤0.5 was considered as a synergistic effect, and >2 was considered as antagonism."}, "budding yeast": {"test_system": "budding yeast", "test": "MIC of CFW in the presence of compounds, checkerboard assay", "format": "cell-based, S. cerevisiae", "settings": "budding yeast, CFW alone", "procedure": "as §1"}, "[1]": {"test_system": "fks1∆ (fks1::KanMX in BY4741)", "test": "MIC in compound library screening assay, fks1∆ yeast", "format": "cell-based, S. cerevisiae", "settings": "for MIC: Saccharomyces cerevisiae, 24 h, read-out: MIC, fks1∆", "procedure": "(§2) The compound library is a combination of synthetic compounds from Enamine (Kyiv, Ukraine) and Life Chemicals Inc. (Burlington, ON, Canada) and natural products from the Institute of Medicinal Biotechnology. We used WT, chs3∆, and fks1∆ yeast strains to screen new antifungal agents. The screening assays were performed in 96-well plates in a final volume of 200 μL. Fresh yeast cells (OD600 = 0.8) were diluted to 10^5 CFU/mL in YPD medium. We added 198 μL of diluted culture and 2 μL of compounds into each well, and the final concentration of compounds was 100 μg/mL with 1% DMSO. The yeast cells were incubated at 30 °C for 24 hours to assess the growth. For the compounds that inhibited the growth of all three yeast strains, they were serially diluted to determine the minimal inhibit concentration (MIC) with the same method. MIC endpoints were defined as the lowest concentration of drugs that cause a 90% decrease in growth compared to the drug-free control (MIC90)."}, "[2]": {"test_system": "WT S. cerevisiae strain BY4741", "test": "MIC in compound library screening assay, WT yeast", "format": "cell-based", "settings": "for MIC: Saccharomyces cerevisiae", "procedure": "as §2"}, "WT S. cerevisiae": {"test_system": "WT S. cerevisiae", "test": "Checkerboard assay, synergy with caspofungin", "format": "cell-based", "settings": "for MIC: Saccharomyces cerevisiae, read-out: MIC Alone", "procedure": "as §1"}, "C. albicans ATCC10231": {"test_system": "C. albicans ATCC10231", "test": "Checkerboard assay, synergy with caspofungin", "format": "cell-based", "settings": "Candida albicans", "procedure": "as §1"}, "[3]": {"test_system": "chs3∆ (chs3::KanMX in BY4741)", "test": "MIC in compound library screening assay, chs3∆ yeast", "format": "cell-based, S. cerevisiae", "settings": "for MIC: Saccharomyces cerevisiae, 24 h", "procedure": "as §2"}},
  "note": "Like-named read-outs stand apart in the source and are kept apart here.",
  "data": [
    {"smiles": "O=S(=O)([O-])c1cc(Nc2nc(Nc3ccccc3)nc(N(CCO)CCO)n2)ccc1/C=C/c1ccc(Nc2nc(Nc3ccccc3)nc(N(CCO)CCO)n2)cc1S(=O)(=O)[O-].[Na+].[Na+]", "note": "[CFW, Calcofluor White M2R, reference compound]", "values": [
      {"measurement": "MIC of CFW", "setting": "C. albicans; C. albicans, absence of chitin synthesis inhibitor", "result": 12.5, "unit": "µg/mL"},
      {"measurement": "MIC of CFW", "setting": "budding yeast", "result": 6.25, "unit": "µg/mL"}
    ]},
    {"smiles": "C[C@@H]([C@H](N)C(=O)N[C@H](C(=O)O)[C@H]1O[C@@H](n2ccc(=O)[nH]c2=O)[C@H](O)[C@@H]1O)[C@H](O)c1ccc(O)cn1", "note": "[Nikkomycin, nikkomycin Z, reference compound]", "values": [
      {"measurement": "MIC", "setting": "C. albicans; Candida albicans, read-out: MIC of CFW in the presence of nikkomycin Z", "result": 100, "unit": "µg/mL"},
      {"measurement": "MIC", "setting": "[1]", "result": 25, "unit": "µg/mL"},
      {"measurement": "MIC, fks1∆", "setting": "[1]; fks1∆ mutant, YPD, 30 °C, 24 hours, MIC90", "result": 25, "unit": "µg/mL"},
      {"measurement": "MIC", "setting": "[2]; 24 h, read-out: MIC, WT, WT BY4741, YPD, 30 °C, 24 hours, MIC90", "result": "≥ 200", "unit": "µg/mL"},
      {"measurement": "MIC, WT", "setting": "[2]; WT BY4741, YPD, 30 °C, 24 hours, MIC90", "result": "> 200", "unit": "µg/mL"},
      {"measurement": "MIC of Caspofungin Combination", "setting": "WT S. cerevisiae; S. cerevisiae, MIC of caspofungin in combination with the named compound, MIC80", "result": 0.0075, "unit": "µg/mL"},
      {"measurement": "MIC Combination", "setting": "WT S. cerevisiae; S. cerevisiae, MIC of the compound in combination with caspofungin, MIC80", "result": 12.5, "unit": "µg/mL"},
      {"measurement": "FICI", "setting": "WT S. cerevisiae; S. cerevisiae, fractional inhibitory concentration index with caspofungin, ≤0.5 synergistic", "result": "<0.5"},
      {"measurement": "MIC", "setting": "WT S. cerevisiae", "result": "> 100", "unit": "µg/mL"},
      {"measurement": "MIC", "setting": "C. albicans ATCC10231; ATCC10231, read-out: MIC Alone", "result": 12.5, "unit": "µg/mL"},
      {"measurement": "MIC of Caspofungin Combination", "setting": "C. albicans ATCC10231; MIC of caspofungin in combination with the named compound, MIC80", "result": 0.00625, "unit": "µg/mL"},
      {"measurement": "MIC Combination", "setting": "C. albicans ATCC10231; MIC of the compound in combination with caspofungin, MIC80", "result": 3.125, "unit": "µg/mL"},
      {"measurement": "MIC", "setting": "[3]; read-out: MIC, chs3∆, chs3∆ mutant, YPD, 30 °C, 24 hours, MIC90", "result": "≥ 200", "unit": "µg/mL"},
      {"measurement": "MIC, chs3∆", "setting": "[3]; chs3∆ mutant, YPD, 30 °C, 24 hours, MIC90", "result": "> 200", "unit": "µg/mL"}
    ]},
    {"smiles": "CC[C@H](C)C[C@H](C)CCCCCCCCC(=O)N[C@H]1C[C@@H](O)[C@@H](NCCN)NC(=O)[C@@H]2[C@@H](O)CCN2C(=O)[C@H]([C@H](O)CCN)NC(=O)[C@H]([C@H](O)[C@@H](O)c2ccc(O)cc2)NC(=O)[C@@H]2C[C@@H](O)CN2C(=O)[C@H]([C@@H](C)O)NC1=O", "note": "[Caspofungin, caspofungin]", "values": [
      {"measurement": "MIC", "setting": "[1]", "result": 0.015, "unit": "µg/mL"},
      {"measurement": "MIC", "setting": "[2]; WT BY4741, YPD, 30 °C, 24 hours, MIC90, read-out: MIC, WT", "result": 0.03, "unit": "µg/mL"},
      {"measurement": "MIC", "setting": "WT S. cerevisiae; S. cerevisiae, compound alone, MIC80", "result": 0.03, "unit": "µg/mL"},
      {"measurement": "MIC", "setting": "C. albicans ATCC10231; ATCC10231, compound alone, MIC80, read-out: MIC Alone", "result": 0.025, "unit": "µg/mL"},
      {"measurement": "MIC", "setting": "[3]; read-out: MIC, chs3∆", "result": 0.00375, "unit": "µg/mL"}
    ]}
  ]
}
